Source: the NIST ThermoML archive (doi:10.1021/je900221m)

Test: cn = amount concentration of the nth substance listed, in mol/dm3
Conditions: 101 kPa, Liquid, Taylor dispersion method

NNC(=O)c1ccncc1 [isonicotinic acid hydrazide] + O
binary diffusion coefficient [m2/s]
Conditions | c1 = 0 | c1 = 0.005 | c1 = 0.01 | c1 = 0.02 | c1 = 0.05 | c1 = 0.1
298.15 K | 8.26e-10 | 8.25e-10 | 8.23e-10 | 8.21e-10 | 8.14e-10 | 8.09e-10
310.15 K | 1.19e-09 | 1.18e-09 | 1.15e-09 | 1.11e-09 | 1.09e-09 | 1.04e-09
